Assay results: patent US8765773B2, “Substituted hydroxamic acids and uses thereof” (Millennium Pharmaceuticals, Inc., priority 2010, dated 2014)

target: T1, purified human HDAC6 (Homo sapiens, UniProt Q9UBN7); assay: HDAC6 Enzyme Assay; type: biochemical; settings: compound concentration 0.37 μM, read-out: Percent Inhibition
T1 construct: purchased BPS Bioscience 5006
T1 sequence (Q9UBN7 1-1215): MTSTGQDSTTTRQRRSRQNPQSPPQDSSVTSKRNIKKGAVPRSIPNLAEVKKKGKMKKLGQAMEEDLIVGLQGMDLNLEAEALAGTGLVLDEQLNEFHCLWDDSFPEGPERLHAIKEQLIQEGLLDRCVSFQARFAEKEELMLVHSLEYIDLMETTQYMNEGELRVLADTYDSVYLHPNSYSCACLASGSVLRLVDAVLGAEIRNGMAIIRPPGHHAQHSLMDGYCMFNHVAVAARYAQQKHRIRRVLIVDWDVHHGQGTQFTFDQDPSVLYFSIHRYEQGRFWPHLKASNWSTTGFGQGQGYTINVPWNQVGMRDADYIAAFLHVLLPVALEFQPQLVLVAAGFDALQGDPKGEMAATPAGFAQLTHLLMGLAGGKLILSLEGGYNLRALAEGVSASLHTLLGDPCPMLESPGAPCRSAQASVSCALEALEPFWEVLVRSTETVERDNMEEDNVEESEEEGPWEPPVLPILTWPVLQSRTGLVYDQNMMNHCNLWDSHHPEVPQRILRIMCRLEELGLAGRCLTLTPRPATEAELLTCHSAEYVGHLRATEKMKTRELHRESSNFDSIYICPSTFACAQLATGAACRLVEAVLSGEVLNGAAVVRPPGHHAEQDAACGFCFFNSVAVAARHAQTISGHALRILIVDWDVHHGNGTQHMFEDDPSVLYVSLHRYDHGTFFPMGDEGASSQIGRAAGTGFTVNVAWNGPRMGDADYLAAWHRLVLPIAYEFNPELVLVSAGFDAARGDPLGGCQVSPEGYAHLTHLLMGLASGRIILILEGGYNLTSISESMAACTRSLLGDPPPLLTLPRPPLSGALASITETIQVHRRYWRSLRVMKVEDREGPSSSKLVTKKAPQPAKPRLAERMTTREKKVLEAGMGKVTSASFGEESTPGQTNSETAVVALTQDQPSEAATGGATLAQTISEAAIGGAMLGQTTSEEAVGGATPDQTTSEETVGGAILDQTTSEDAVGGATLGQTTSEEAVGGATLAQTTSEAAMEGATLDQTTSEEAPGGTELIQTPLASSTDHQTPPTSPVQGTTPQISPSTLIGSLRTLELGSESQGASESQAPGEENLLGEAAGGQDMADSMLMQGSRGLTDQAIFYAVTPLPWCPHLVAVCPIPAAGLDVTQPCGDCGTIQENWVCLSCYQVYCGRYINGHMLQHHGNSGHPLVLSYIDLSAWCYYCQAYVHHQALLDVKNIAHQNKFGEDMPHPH
Procedure, shortened: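 Readout is AMC fluorescence (Ex 340 nm, Em 460 nm) after trypsin cleavage of the deacetylated Ac-Arg-Gly-Lys(Ac)-AMC product. Reaction: purified human HDAC6, compound or vehicle, 1 hour, 30° C, quenched by trichostatin A. Single-concentration percent inhibition or IC50 calculated versus DMSO-treated samples.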

Row | SMILES | inhibition at 0.37 µM [%]
1 | O=C(NO)c1ccc2ccn(CCN(C(=O)C3CC3)c3cccc(-n4cccn4)c3)c(=O)c2c1 [Compound I-45, 2-(2-{(cyclopropylcarbonyl)[3-(1H-pyrazol-1-yl)phenyl]amino}ethyl)-N-hydroxy-1-oxo-1,2-dihydroisoquinoline-7-carboxamide] | 89.6
2 | CCC(C)c1nc2cc(C(=O)NO)ccc2c(=O)n1Cc1ccc(C(F)(F)F)cc1 (stereo not shown) [Compound I-100, 2-sec-butyl-N-hydroxy-4-oxo-3-[4-(trifluoromethyl)benzyl]-3,4-dihydroquinazoline-7-carboxamide] | 90.6
3 | O=C(NO)c1ccc2ncn(Cc3cccc(-c4ccccc4C(F)(F)F)c3)c(=O)c2c1 [Compound I-124, N-hydroxy-4-oxo-3-{[2′-(trifluoromethyl)biphenyl-3-yl]methyl}-3,4-dihydroquinazoline-6-carboxamide] | 91.4
4 | CC(C)(C)C(=O)Nc1ncccc1-c1cccc(Cn2cnc3ccc(C(=O)NO)cc3c2=O)c1 [Compound I-230, 3-(3-{2-[(2,2-dimethylpropanoyl)amino]pyridin-3-yl}benzyl)-N-hydroxy-4-oxo-3,4-dihydroquinazoline-6-carboxamide] | 92.4
5 | O=C(NO)c1ccc2ncn(Cc3cccc(-c4cccc(OC(F)(F)F)c4)c3)c(=O)c2c1 [Compound I-37, N-hydroxy-4-oxo-3-{[3′-(trifluoromethoxy)biphenyl-3-yl]methyl}-3,4-dihydroquinazoline-6-carboxamide] | 89.8
6 | CC(=O)Nc1cccc(-c2cccc(Cn3cnc4ccc(C(=O)NO)cc4c3=O)c2)c1 [Compound I-60, 3-{[3′-(acetylamino)biphenyl-3-yl]methyl}-N-hydroxy-4-oxo-3,4-dihydroquinazoline-6-carboxamide] | 98.4

More lines, now with the values ahead:

Row | inhibition at 0.37 µM [%] | SMILES
7 | 93.3 | COc1ccc(-c2cccc(CCn3cnc4ccc(C(=O)NO)cc4c3=O)c2)cc1 [Compound I-303, N-hydroxy-3-[2-(4′-methoxybiphenyl-3-yl)ethyl]-4-oxo-3,4-dihydroquinazoline-6-carboxamide]
8 | 61.5 | CC(C)c1ccc(-c2cccc(CCn3cnc4ccc(C(=O)NO)cc4c3=O)c2)cc1 [Compound I-297, N-hydroxy-3-[2-(4′-isopropylbiphenyl-3-yl)ethyl]-4-oxo-3,4-dihydroquinazoline-6-carboxamide]
9 | 86.6 | Cc1ccccc1Cc1nc2cc(C(=O)NO)ccc2c(=O)[nH]1 [Compound I-406, N-hydroxy-2-(2-methylbenzyl)-4-oxo-3,4-dihydroquinazoline-7-carboxamide]
10 | 79 | O=C(NO)c1ccc2c(=O)[nH]c(-c3cccnc3)nc2c1 [Compound I-398, N-hydroxy-4-oxo-2-pyridin-3-yl-3,4-dihydroquinazoline-7-carboxamide]
11 | 93.2 | O=C(NO)c1ccc2ncn(Cc3cccc(-c4cc5ccccc5s4)c3)c(=O)c2c1 [Compound I-268, 3-[3-(1-benzothien-2-yl)benzyl]-N-hydroxy-4-oxo-3,4-dihydroquinazoline-6-carboxamide]
12 | 76.1 | Nc1cccc(-c2cccc(CCn3cnc4ccc(C(=O)NO)cc4c3=O)c2)c1 [Compound I-322, 3-[2-(3′-aminobiphenyl-3-yl)ethyl]-N-hydroxy-4-oxo-3,4-dihydroquinazoline-6-carboxamide]
13 | 29.5 | CNCc1cn(Cc2ccccc2)c(=O)c2cc(C(=O)NO)ccc12 [Compound I-418, 2-benzyl-N-hydroxy-4-[(methylamino)methyl]-1-oxo-1,2-dihydroisoquinoline-7-carboxamide]
14 | 96.7 | O=C(NO)c1ccc2ccn(-c3cccc(-c4ccncc4)c3)c(=O)c2c1 [Compound I-328, N-hydroxy-1-oxo-2-(3-pyridin-4-ylphenyl)-1,2-dihydroisoquinoline-7-carboxamide]
15 | 82.8 | O=C(NO)c1ccc2c(Br)cn(Cc3ccccc3)c(=O)c2c1 [Compound I-292, 2-benzyl-4-bromo-N-hydroxy-1-oxo-1,2-dihydroisoquinoline-7-carboxamide]

same assay, conditions: compound concentration 0.412 μM, read-out: Percent Inhibition

Row | SMILES | inhibition at 0.412 µM [%]
16 | O=C(NO)c1ccc2ccn(CCCOc3ccccc3Cl)c(=O)c2c1 [Compound I-227, 2-[3-(2-chlorophenoxy)propyl]-N-hydroxy-1-oxo-1,2-dihydroisoquinoline-7-carboxamide] | 93.7
17 | O=C(NO)c1ccc2ccn(Cc3ccc(F)cc3F)c(=O)c2c1 [Compound I-222, 2-(2,4-difluorobenzyl)-N-hydroxy-1-oxo-1,2-dihydroisoquinoline-7-carboxamide] | 94.6
18 | CC(C)Cc1nc2cc(C(=O)NO)ccc2c(=O)n1Cc1ccc(C(F)(F)F)cc1 [Compound I-81, N-hydroxy-2-isobutyl-4-oxo-3-[4-(trifluoromethyl)benzyl]-3,4-dihydroquinazoline-7-carboxamide] | 76.7
19 | Cc1nc2cc(C(=O)NO)ccc2c(=O)n1C [Compound I-132, N-hydroxy-2,3-dimethyl-4-oxo-3,4-dihydroquinazoline-7-carboxamide] | 59.8
20 | COCCOCCn1ccc2ccc(C(=O)NO)cc2c1=O [Compound I-228, N-hydroxy-2-[2-(2-methoxyethoxy)ethyl]-1-oxo-1,2-dihydroisoquinoline-7-carboxamide] | 86.9
21 | CC(C)Nc1nc2cc(C(=O)NO)ccc2c(=O)n1-c1ccc(Cl)cc1 [Compound I-40, 3-(4-chlorophenyl)-N-hydroxy-2-(isopropylamino)-4-oxo-3,4-dihydroquinazoline-7-carboxamide] | 44.5
22 | CC(C)(C)OC(=O)N1CCC(NCc2nc3cc(C(=O)NO)ccc3c(=O)[nH]2)CC1 [Compound I-56, tert-butyl 4-[({7-[(hydroxyamino)carbonyl]-4-oxo-3,4-dihydroquinazolin-2-yl}methyl)amino]piperidine-1-carboxylate] | 69
23 | O=C(NO)c1ccc2c(=O)n(CC3CC3)cnc2c1 [Compound I-59, 3-(cyclopropylmethyl)-N-hydroxy-4-oxo-3,4-dihydroquinazoline-7-carboxamide] | 80.7
24 | CS(=O)(=O)c1ccccc1OCCCn1ccc2ccc(C(=O)NO)cc2c1=O [Compound I-51, N-hydroxy-2-{3-[2-(methylsulfonyl)phenoxy]propyl}-1-oxo-1,2-dihydroisoquinoline-7-carboxamide] | 96.2
25 | O=C(NO)c1ccc2c(=O)[nH]c(CNC3CCNCC3)nc2c1 [Compound I-146, N-hydroxy-4-oxo-2-[(piperidin-4-ylamino)methyl]-3,4-dihydroquinazoline-7-carboxamide] | 65.7
26 | O=C(NO)c1ccc2ccn(CCOc3cccc4c3CCC4)c(=O)c2c1 [Compound I-196, 2-[2-(2,3-dihydro-1H-inden-4-yloxy)ethyl]-N-hydroxy-1-oxo-1,2-dihydroisoquinoline-7-carboxamide] | 95.2
27 | O=C(NO)c1ccc2ccn(CCCOc3ccc(OCc4ccccc4)cc3)c(=O)c2c1 [Compound I-116, 2-{3-[4-(benzyloxy)phenoxy]propyl}-N-hydroxy-1-oxo-1,2-dihydroisoquinoline-7-carboxamide] | 80.2

More lines, now with the values ahead:

Row | inhibition at 0.412 µM [%] | SMILES
28 | 85.6 | CCC(C)Cn1ccc2ccc(C(=O)NO)cc2c1=O (stereo not shown) [Compound I-255, N-hydroxy-2-(2-methylbutyl)-1-oxo-1,2-dihydroisoquinoline-7-carboxamide]
29 | 97.6 | O=C(NO)c1ccc2ccn(CCOc3ccccc3)c(=O)c2c1 [Compound I-252, N-hydroxy-1-oxo-2-(2-phenoxyethyl)-1,2-dihydroisoquinoline-7-carboxamide]
30 | 87.5 | O=C(NO)c1ccc2ccn(CC3CC3)c(=O)c2c1 [Compound I-261, 2-(cyclopropylmethyl)-N-hydroxy-1-oxo-1,2-dihydroisoquinoline-7-carboxamide]
31 | 90 | COc1ccccc1OCc1nc2cc(C(=O)NO)ccc2c(=O)[nH]1 [Compound I-248, N-hydroxy-2-[(2-methoxyphenoxy)methyl]-4-oxo-3,4-dihydroquinazoline-7-carboxamide]
